In paper PMC9232612, “A phase 1b randomised controlled trial of a glucagon-like peptide-1 and glucagon receptor dual agonist IBI362 (LY3305677) in Chinese patients with type 2 diabetes” (Nature Communications, 2022):
Where two headings read alike, the source gives them in different places.

Assay: Non-compartmental pharmacokinetics of IBI362 in plasma
Format: in vivo
Conditions: human, sc; for AUC(0-t): n=8, read-out: AUC0-168h, geometric mean (CV%); for Cmax: n=8, read-out: Cmax, geometric mean (CV%)
From the text: Standard non-compartmental pharmacokinetics methods were used to analyze IBI362 plasma concentration data using Pkanalix 2020R1 (Lixoft, Antony, France). Secondary efficacy outcomes included change from baseline to week 12 in HbA1c, fasting plasma glucose (FPG), fasting insulin levels, change from baseline to week 12 in post-mixed-meal tolerance test (post-MTT) glucose, insulin, C peptide, GLP-1 and OXM levels, as well as seven-point self-measured blood glucose (SMBG) profile.
Safety analyses were done in the safety population (defined as all patients who received at least one dose of the study treatment). Pharmacokinetic analyses were done in the pharmacokinetic population (defined as all patients who received at least one dose of IBI362 and had at least one valid plasma concentration assessment). Efficacy analyses were done in the efficacy population (defined as all patients who received at least one dose of the study treatment and had baseline and at least one post-baseline HbA1c assessment). Immunogenicity analyses were done in the immunogenicity population (defined as all patients who received at least one dose of the study treatment and had at least one post-baseline ADA result). […]
Table 3. PK/PD Sampling Schedule
sampling time hour hour hour hour 1 hour hour hour for
collection - - min min ± 30 mi 1h 2h 3h 4h 5h - ± 2h - min min - ± 2h - min min - - 2h 12h
Drug √ √ √ √ √ √ √ √ √ √ √ √ √ √ √
PK Sampling ● ● ● ● ● ● ● ● ● ● ● ● ● ● ● ● ● ● ● ● ● ● ●
1. PK sampling time points: Week 1 (intensive PK) PK sampling points: within 1 h before administration, 4 h ± 10 min, 8 h ± 20 min, 12 h ± 30 min, 24 h ± 1 h (Day 2), 48 h ± 2 h (Day 3), 72 h ± 3 h (Day 4), 96 h
± 4 h (Day 5), 120 h ± 5 h (Day 6) and within 1 h before administration on Day 8. Week 4: D22 for 48h ± 2h. Sparse sampling in Week 5: within 1 h before administration on Day 29, 4 h ± 10 min, 8 h ± 20 min after
administration and within 1 h before administration on Day 36. Week 8: D50 48h ± 2h. Sparse sampling in Week 9: within 1 h before administration on Day 57, 4 h ± 10 min, 8 h ± 20 min after administration and within
1 h before administration on Day 64. Sparse sampling at Week 12: Within 1h before administration, 48h ± 2h after administration (D80) and 168h ± 12h after administration (D85) on D78. If a patient fails to complete
the study and withdraws from the study prematurely, PK samples will be collected at early termination visit. Three (3) mL samples will be collected at each blood collection site and detailed procedures will be provided
in the central laboratory manual.
2. PD sampling (insulin/C-peptide/plasma glucose/glucagon/OXM/GLP-1) points: Week 1: within 48 hours ± 2 hours after dosing (Day 3), within 1 hour before dosing on Day 8; Week 5: within 1 hour before dosing
on Day 29; Week 9: within 1 hour before dosing on Day 57; Week 12: within 1 hour before dosing on D78 and 168 hours ± 12 hours after dosing (D85). PD samples will be collected at the early termination visit, if a
patient withdraw early due to failure to complete the study. All PD sampling will be performed in the fasted state. A total of 9 mL will be collected from each blood collection site, and the detailed operation process will
be described in the central laboratory manual.

[1] = after the first dose (1.0 mg s.c.), 3.0 mg cohort
[2] = after the first dose (1.5 mg s.c.), 4.5 mg cohort
[3] = after the first dose (2.0 mg s.c.), 6.0 mg cohort

Tmax (after first s.c. dose, all IBI362 cohorts, n=24, read-out: median Tmax): ~72 h
AUC(0-t) [1]: 12300 ng·h/mL
Cmax [1]: 89.5 ng/mL
Tmax (after the first dose (1.0 mg s.c.), 3.0 mg cohort, n=8, read-out: Tmax, median (range)): 48.2 h
AUC(0-t) [2]: 16500 ng·h/mL
Cmax [2]: 109 ng/mL
Tmax (after the first dose (1.5 mg s.c.), 4.5 mg cohort, n=8, read-out: Tmax, median (range)): 72.2 h
AUC(0-t) [3]: 22100 ng·h/mL
Cmax [3]: 170 ng/mL
Tmax (after the first dose (2.0 mg s.c.), 6.0 mg cohort, n=8, read-out: Tmax, median (range)): 84 h
SMILES: CC(C)C[C@H](NC(=O)[C@H](CC(C)C)NC(=O)[C@H](Cc1c[nH]c2ccccc12)NC(=O)[C@H](CCC(=O)O)NC(=O)[C@@H](NC(=O)[C@H](Cc1ccccc1)NC(=O)[C@H](CCC(=O)O)NC(=O)[C@H](CCCCNC(=O)COCCOCCNC(=O)COCCOCCNC(=O)CC[C@H](NC(=O)CCCCCCCCCCCCCCCCCCC(=O)O)C(=O)O)NC(=O)[C@H](C)NC(=O)[C@H](CCCCN)NC(=O)[C@H](CCCCN)NC(=O)[C@H](CCC(=O)O)NC(=O)[C@H](CC(=O)O)NC(=O)[C@H](CC(C)C)NC(=O)[C@H](Cc1ccc(O)cc1)NC(=O)[C@H](CCCCN)NC(=O)[C@H](CO)NC(=O)[C@H](Cc1ccc(O)cc1)NC(=O)[C@H](CC(=O)O)NC(=O)[C@H](CO)NC(=O)[C@@H](NC(=O)[C@H](Cc1ccccc1)NC(=O)[C@@H](NC(=O)CNC(=O)[C@H](CCC(N)=O)NC(=O)C(C)(C)NC(=O)[C@@H](N)Cc1c[nH]cn1)[C@@H](C)O)[C@@H](C)O)C(C)C)C(=O)N[C@@H](CCC(=O)O)C(=O)NCC(=O)NCC(=O)N1CCC[C@H]1C(=O)N[C@@H](CO)C(=O)N[C@@H](CO)C(=O)NCC(N)=O [IBI362]
